According to patent US7317007B2, “Benzothiazole derivatives with activity as adenosine receptor ligands” (Hoffmann-La Roche Inc., priority 2000, dated 2008):
Where a name gives a salt, the structure may show the parent alone.

Molecular target: T1, human adenosine A2A receptor (Homo sapiens, UniProt P29274)
T1 construct: expressed in transfected cells; host or cells: CHO cells, Semliki Forest virus expression system; washed membrane pellet used
Assay: [3H]-SCH-58261 binding assay at the human adenosine A2A receptor
Conditions: read-out: pKi value (converted)
Procedure: Human Adenosine A2A Receptor
The human adenosine A2A receptor was recombinantly expressed in chinese hamster ovary (CHO) cells using the semliki forest virus expression system. Cells were harvested, washed twice by centrifugation, homogenised and again washed by centrifugation. The final washed membrane pellet was suspended in a Tris (50 mM) buffer containing 120 mM NaCl, 5 mM KCl, 2 mM CaCl2 and 10 mM MgCl2 (pH 7.4) (buffer A). The [^3H]-SCH-58261 (Dionisotti et al., 1997, Br J Pharmacol 121, 353; 1 nM) binding assay was carried out in 96-well plates in the presence of 2.5 μg of membrane protein, 0.5 mg of Ysi-poly-1-lysine SPA beads and 0.1 U adenosine deaminase in a final volume of 200 μl of buffer A. Non-specific binding was defined using xanthine amine congener (XAC; 2 μM). Compounds were tested at 10 concentrations from 10 μM-0.3 nM. All assays were conducted in duplicate and repeated at least two times. Assay plates were incubated for 1 hour at room temperature before centrifugation and then bound ligand determined using a Packard Topcount scintillation counter. IC50 values were calculated using a non-linear curve fitting program and Ki values calculated using the Cheng-Prussoff equation.

T1 sequence (P29274 whole entry): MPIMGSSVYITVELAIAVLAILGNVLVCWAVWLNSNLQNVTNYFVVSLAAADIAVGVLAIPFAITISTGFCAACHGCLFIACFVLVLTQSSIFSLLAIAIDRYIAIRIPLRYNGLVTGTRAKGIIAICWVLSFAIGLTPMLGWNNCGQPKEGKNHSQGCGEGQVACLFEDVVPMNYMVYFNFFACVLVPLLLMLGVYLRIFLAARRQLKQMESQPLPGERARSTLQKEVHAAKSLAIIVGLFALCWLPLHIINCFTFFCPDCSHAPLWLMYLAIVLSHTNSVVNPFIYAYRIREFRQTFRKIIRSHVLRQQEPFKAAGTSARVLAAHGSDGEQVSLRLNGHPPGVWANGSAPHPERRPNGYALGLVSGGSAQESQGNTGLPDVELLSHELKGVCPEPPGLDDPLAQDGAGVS

Row | Compound | Ki
1 | COc1ccc(-c2ccccc2)c2sc(NC(=O)c3ccc(C)s3)nc12 [Example 3, 5-Methyl-thiophene-2-carboxylic acid (4-methoxy-7-phenyl-benzothiazol-2-yl)-amide] | 1.58 nM
2 | COc1ccc(-c2ccccc2)c2sc(NC(=O)c3ccc(C)o3)nc12 [Example 10, 5-Methyl-furan-2-carboxylic acid (4-methoxy-7-phenyl-benzothiazol-2-yl)-amide] | 1 nM
3 | COc1ccc(-c2ccccc2)c2sc(NC(=O)c3ccc(CO)cc3)nc12 [Example 17, 4-Hydroxymethyl-N-(4-methoxy-7-phenyl-benzothiazol-2-yl)-benzamide] | 0.501 nM
4 | COc1ccc(-c2ccccc2)c2sc(NC(=O)c3ccc(F)cc3)nc12 [Example 23, 4-Fluoro-N-(4-methoxy-7-phenyl-benzothiazol-2-yl)-benzamide] | 1.26 nM
5 | COc1ccc(-c2ccccc2)c2sc(NC(=O)c3ccncc3)nc12 [Example 36, N-(4-Methoxy-7-phenyl-benzothiazol-2-yl)-isonicotinamide] | 0.794 nM
6 | COc1ccc(-c2ccnc(C)c2)c2sc(NC(=O)c3ccc(C)s3)nc12 [Example 61, 5-Methyl-thiophene-2-carboxylic acid [4-methoxy-7-(2-methyl-pyridin-4-yl)-benzothiazol-2-yl]-amide] | 1.26 nM
7 | COc1ccc(-c2cccc(N)c2)c2sc(NC(=O)c3ccc(C)s3)nc12 [Example 62, 5-Methyl-thiophene-2-carboxylic acid [7-(3-amino-phenyl)-4-methoxy-benzothiazol-2-yl]-amide] | 0.794 nM
8 | COCCNCc1ccc(C(=O)Nc2nc3c(OC)ccc(-c4ccccc4)c3s2)cc1 [Example 91, 4-[(2-Methoxy-ethylamino)-methyl]-N-(4-methoxy-7-phenyl-benzothiazol-2-yl)-benzamide hydrochloride salt (1:1)] | 1.58 nM
9 | COc1ccc(-c2ccccc2)c2sc(NC(=O)c3ccc(CNCCO)cc3)nc12 [Example 92, 4-[(2-Hydroxy-ethylamino)-methyl]-N-(4-methoxy-7-phenyl-benzothiazol-2-yl)-benzamide hydrochloride salt (1:1)] | 1.26 nM
10 | COc1ccc(-c2ccccc2)c2sc(NC(=O)c3ccc(CNCc4ccncc4)cc3)nc12 [Example 96, N-(4-Methoxy-7-phenyl-benzothiazol-2-yl)-4-{[(pyridin-4-ylmethyl)-amino]-methyl}-benzamide hydrochloride salt (1:2)] | 1.58 nM
11 | COc1ccc(-c2ccccc2)c2sc(NC(=O)c3ccc(Cn4ccnc4)cc3)nc12 [Example 100, 4-Imidazol-1-ylmethyl-N-(4-methoxy-7-phenyl-benzothiazol-2-yl)-benzamide hydrochloride salt (1:1)] | 0.501 nM
12 | COc1ccc(-c2ccccc2)c2sc(NC(=O)c3ccc(CNCc4cccnc4)cc3)nc12 [Example 107, N-(4-Methoxy-7-phenyl-benzothiazol-2-yl)-4-{[(pyridin-3-ylmethyl)-amino]-methyl}-benzamide hydrochloride salt (1:2)] | 1.58 nM
13 | COc1ccc(-c2ccccc2)c2sc(NC(=O)c3ccc(CN4CCC(O)CC4)cc3)nc12 [Example 108, 4-(4-Hydroxy-piperidin-1-ylmethyl)-N-(4-methoxy-7-phenyl-benzothiazol-2-yl)-benzamide hydrochloride salt (1:1)] | 1.26 nM
14 | COc1ccc(-c2ccccc2)c2sc(NC(=O)c3ccc(CN)cc3)nc12 [Example 121, 4-Aminomethyl-N-(4-methoxy-7-phenyl-benzothiazol-2-yl)-benzamide hydrochloride salt (1:1)] | 1 nM
15 | COc1ccc(-c2ccccc2)c2sc(NC(=O)c3ccc(CN4CC[C@H](N(C)C)C4)cc3)nc12 [Example 125, 4-(3 (S)-Dimethylamino-pyrrolidin-1-ylmethyl)-N-(4-methoxy-7-phenyl-benzothiazol-2-yl)-benzamide hydrochlorde salt (1:2)] | 1 nM
16 | COc1ccc(-c2ccccc2)c2sc(NC(=O)N3CCOCC3)nc12 [Example 157, Morpholine-4-carboxylic acid (4-methoxy-7-phenyl-benzothiazol-2-yl)-amide] | 1.26 nM
17 | COC(=O)Nc1nc2c(OC)ccc(-c3csc(-c4ccc(C)nc4)n3)c2s1 [Example 201, {4-Methoxy-7-[2-(6-methyl-pyridin-3-yl)-thiazol-4-yl]-benzothiazol-2-yl}-carbamic acid methyl ester] | 2.51 nM
18 | COCCN(C)Cc1ccc(C(=O)Nc2nc3c(OC)ccc(-c4csc(-c5ccc(C)nc5)n4)c3s2)cc1 [Example 238, 4-{[(2-Methoxy-ethyl)-methyl-amino]-methyl}-N-{4-methoxy-7-[2-(6-methyl-pyridin-3-yl)-thiazol-4-yl]-benzothiazol-2-yl}-benzamide] | 2 nM
19 | COc1ccc(-c2csc(-c3ccc(C)nc3)n2)c2sc(NC(=O)N3CCOCC3)nc12 [Example 258] | 1.26 nM

Row | Compound | Ki
20 | COc1ccc(N2CCOCC2)c2sc(NC(=O)c3ccc(C(F)(F)F)cc3)nc12 [Example 271, N-(4-Methoxy-7-morpholin-4-yl-benzothiazol-2-yl)-4-trifluoromethyl-benzamide] | 2.51 nM
21 | COc1ccc(N2CCOCC2)c2sc(NC(=O)c3ccc(F)cc3)nc12 [Example 275, 4-Fluoro-N-(4-methoxy-7-morpholin-4-yl-benzothiazol-2-yl)-benzamide] | 2 nM
22 | COc1ccc(N2CCOCC2)c2sc(NC(=O)c3ccccc3)nc12 [Example 277, N-(4-Methoxy-7-morpholin-4-yl-benzothiazol-2-yl)-benzamide] | 2 nM
23 | CCN(CCOC)Cc1cc(C(=O)Nc2nc3c(OC)ccc(N4CCOCC4)c3s2)ccc1Cl [Example 278, 4-Chloro-3-{[ethyl-(2-methoxy-ethyl)-amino]-methyl}-N-(4-methoxy-7-morpholin-4-yl-benzothiazol-2-yl)-benzamide] | 3.16 nM
24 | CNCc1cccc(C(=O)Nc2nc3c(OC)ccc(N4CCOCC4)c3s2)c1 [Example 279, N-(4-Methoxy-7-morpholin-4-yl-benzothiazol-2-yl)-3-methylaminomethyl-benzamide] | 1.58 nM
25 | CNCc1cc(C(=O)Nc2nc3c(OC)ccc(N4CCOCC4)c3s2)ccc1Cl [Example 280, 4-Chloro-N-(4-methoxy-7-morpholin-4-yl-benzothiazol-2-yl)-3-methylaminomethyl-benzamide] | 2 nM
26 | COCCNCc1cc(C(=O)Nc2nc3c(OC)ccc(N4CCOCC4)c3s2)ccc1Cl [Example 282, 4-Chloro-3-[(2-methoxy-ethylamino)-methyl]-N-(4-methoxy-7-morpholin-4-yl-benzothiazol-2-yl)-benzamide] | 2.51 nM
27 | COc1ccc(N2CCOCC2)c2sc(NC(=O)c3ccc(Cl)c(CN4CCCC4)c3)nc12 [Example 283, 4-Chloro-N-(4-methoxy-7-morpholin-4-yl-benzothiazol-2-yl)-3-pyrrolidin-1-ylmethyl-benzamide] | 1 nM
28 | COCCNCc1cccc(C(=O)Nc2nc3c(OC)ccc(N4CCOCC4)c3s2)c1 [Example 286] | 1.58 nM
29 | COCCN(C)Cc1cccc(C(=O)Nc2nc3c(OC)ccc(N4CCOCC4)c3s2)c1 [Example 287, 3-{[(2-Methoxy-ethyl)-methyl-amino]-methyl}-N-(4-methoxy-7-morpholin-4-yl-benzothiazol-2-yl)-benzamide] | 3.16 nM
30 | COc1ccc(N2CCOCC2)c2sc(NC(=O)c3cccc(CN4CCCC4)c3)nc12 [Example 289, N-(4-Methoxy-7-morpholin-4-yl-benzothiazol-2-yl)-3-pyrrolidin-1-ylmethyl-benzamide] | 1.26 nM
31 | CCOCCNCc1ccc(C(=O)Nc2nc3c(OC)ccc(N4CCOCC4)c3s2)cc1 [Example 290, 4-[(2-Ethoxy-ethylamino)-methyl]-N-(4-methoxy-7-morpholin-4-yl-benzothiazol-2-yl)-benzamide] | 2.51 nM
32 | CNCc1ccc(C(=O)Nc2nc3c(OC)ccc(N4CCOCC4)c3s2)cc1 [Example 292, N-(4-Methoxy-7-morpholin-4-yl-benzothiazol-2-yl)-4-methylaminomethyl-benzamide] | 1.58 nM
33 | COc1ccc(N2CCOCC2)c2sc(NC(=O)c3ccc(CSCCN(C)C)cc3)nc12 [Example 298, 4-(2-Dimethylamino-ethylsulfanylmethyl)-N-(4-methoxy-7-morpholin-4-yl-benzothiazol-2-yl)-benzamide] | 2 nM
34 | CCOCCN(CC)Cc1ccc(C(=O)Nc2nc3c(OC)ccc(N4CCOCC4)c3s2)cc1 [Example 301, 4-{[(2-Ethoxy-ethyl)-ethyl-amino]-methyl}-N-(4-methoxy-7-morpholin-4-yl-benzothiazol-2-yl)-benzamide] | 3.16 nM
35 | CCOCCN(C)Cc1ccc(C(=O)Nc2nc3c(OC)ccc(N4CCOCC4)c3s2)cc1 [Example 304, 4-{[(2-Ethoxy-ethyl)-methyl-amino]-methyl}-N-(4-methoxy-7-morpholin-4-yl-benzothiazol-2-yl)-benzamide] | 3.16 nM
36 | COc1ccc(N2CCOCC2)c2sc(NC(=O)c3ccc(Cn4ccnc4C)cc3)nc12 [Example 308, N-(4-Methoxy-7-morpholin-4-yl-benzothiazol-2-yl)-4-(2-methyl-imidazol-1-yl-methyl)-benzamide] | 0.794 nM
37 | COc1ccc(N2CCOCC2)c2sc(NC(=O)c3ccc(CN4CCN(C)CC4)cc3)nc12 [Example 309, N-(4-Methoxy-7-morpholin-4-yl-benzothiazol-2-yl)-4-(4-methyl-piperazin-1-yl-methyl)-benzamide] | 3.16 nM
